Experimental data published in PubChem BioAssay AID1259407 (Chemical Carcinogenesis Research Information System (CCRIS), 2018).
Active and inactive are the calls of the source. The rule behind the calls is not given here. Where a SMILES comes first, the peptide text is derived from it. The star is where a group is joined. For = O=C*

System: CCRIS mutagenicity, Ames/micronucleus/aberration tests
Test: CCRIS mutagenicity studies
[1] = Test System: AMES SALMONELLA TYPHIMURIUM, Strain/Indicator: TA98, Metabolic Activation: NONE, Method: PREINCUBATION
[2] = Test System: AMES SALMONELLA TYPHIMURIUM, Strain/Indicator: TA98, Metabolic Activation: NONE, Method: STANDARD PLATE
[3] = Test System: AMES SALMONELLA TYPHIMURIUM, Strain/Indicator: TA98, Metabolic Activation: RAT, LIVER, S-9, AROCLOR 1254, Method: STANDARD PLATE
[4] = Test System: AMES SALMONELLA TYPHIMURIUM, Strain/Indicator: TA100, Metabolic Activation: NONE, Method: STANDARD PLATE
[5] = Test System: AMES SALMONELLA TYPHIMURIUM, Strain/Indicator: TA100, Metabolic Activation: RAT, LIVER, S-9, AROCLOR 1254, Method: STANDARD PLATE
[6] = Test System: AMES SALMONELLA TYPHIMURIUM, Strain/Indicator: TA1535, Metabolic Activation: NONE, Method: STANDARD PLATE
[7] = Test System: AMES SALMONELLA TYPHIMURIUM, Strain/Indicator: TA1535, Metabolic Activation: RAT, LIVER, S-9, AROCLOR 1254, Method: STANDARD PLATE
[8] = Test System: AMES SALMONELLA TYPHIMURIUM, Strain/Indicator: TA1537, Metabolic Activation: NONE, Method: STANDARD PLATE
[9] = Test System: AMES SALMONELLA TYPHIMURIUM, Strain/Indicator: TA1537, Metabolic Activation: RAT, LIVER, S-9, AROCLOR 1254, Method: STANDARD PLATE

SMILES | mutagenic call [1] | mutagenic call [2] | mutagenic call [3] | mutagenic call [4] | mutagenic call [5] | mutagenic call [6] | mutagenic call [7] | mutagenic call [8] | mutagenic call [9] | other results
O=C(Cl)C(Cl)c1ccccc1 (stereo not given) | active; positive | – | – | – | – | – | – | – | – | mutagenic call (Test System: AMES SALMONELLA TYPHIMURIUM, Strain/Indicator: TA98, Metabolic Activation: RAT LIVER S-9, PCB, Method: PREINCUBATION): active; positive; mutagenic call (Test System: AMES SALMONELLA TYPHIMURIUM, Strain/Indicator: TA100, Metabolic Activation: NONE, Method: PREINCUBATION): active; positive; mutagenic call (Test System: AMES SALMONELLA TYPHIMURIUM, Strain/Indicator: TA100, Metabolic Activation: RAT LIVER S-9, PCB, Method: PREINCUBATION): active; positive; mutagenic call (Test System: AMES SALMONELLA TYPHIMURIUM, Strain/Indicator: TA104, Metabolic Activation: NONE, Method: PREINCUBATION): active; positive; mutagenic call (Test System: AMES SALMONELLA TYPHIMURIUM, Strain/Indicator: TA104, Metabolic Activation: RAT LIVER S-9, PCB, Method: PREINCUBATION): active; positive; mutagenic call (Test System: E.COLI, Strain/Indicator: WP2 UVRA, Metabolic Activation: NONE, Method: PREINCUBATION): active; positive; mutagenic call (Test System: E.COLI, Strain/Indicator: WP2 UVRA, Metabolic Activation: RAT LIVER S-9, PCB, Method: PREINCUBATION): active; positive
[Cl][Sn][Cl] | – | inactive; negative | inactive; negative | inactive; negative | inactive; negative | inactive; negative | inactive; negative | inactive; negative | inactive; negative | mutagenic call (End Point: IN VITRO CHROMOSOMAL ABERRATIONS, Test System: CHO CELLS, Metabolic Activation: RAT, LIVER, S-9, AROCLOR 1254): active; positive; precipitation occurred at all doses; mutagenic call (End Point: In vivo chromosomal aberrations, Test System: Bone marrow cells (dams), liver cells (fetuses), Species: Mouse, Strain/Sex: Swiss/Female, Route: Oral): active; positive (structural and ploidy changes); mutagenic call (Test System: AMES SALMONELLA TYPHIMURIUM, Strain/Indicator: TA1538, Metabolic Activation: NONE, Method: STANDARD PLATE): inactive; negative; mutagenic call (Test System: AMES SALMONELLA TYPHIMURIUM, Strain/Indicator: TA1538, Metabolic Activation: RAT, LIVER, S-9, AROCLOR 1254, Method: STANDARD PLATE): inactive; negative; mutagenic call (Test System: E. COLI, Strain/Indicator: WP2, Metabolic Activation: NONE, Method: STANDARD PLATE): inactive; negative; mutagenic call (Test System: E. COLI, Strain/Indicator: WP2, Metabolic Activation: RAT, LIVER, S-9, AROCLOR 1254, Method: STANDARD PLATE): inactive; negative; mutagenic call (Test System: E. COLI, Strain/Indicator: WP2 UVRA, Metabolic Activation: NONE, Method: SPOT TEST): inactive; negative; mutagenic call (Test System: UDS RAT HEPATOCYTES, Strain/Indicator: THY INCORP, Metabolic Activation: NONE): inactive; negative
CSCC[C@H](NC=O)C(=O)N[C@@H](Cc1ccccc1)C(=O)O (For-Met-Phe-OH) | – | inactive; negative | inactive; negative | inactive; negative | inactive; negative | inactive; negative | inactive; negative | inactive; negative | inactive; negative | –
CCCNC(=O)C=Cc1ccc([N+](=O)[O-])o1 | active; positive | – | – | – | – | – | – | – | – | –
COC(=O)c1cc(Oc2ccc(Cl)cc2Cl)ccc1[N+](=O)[O-] | – | – | – | – | – | – | – | – | – | mutagenic call (Test System: AMES SALMONELLA TYPHIMURIUM, Strain/Indicator: YG1021, Metabolic Activation: NONE, Method: PREINCUBATION): inactive; negative; mutagenic call (Test System: AMES SALMONELLA TYPHIMURIUM, Strain/Indicator: YG1021, Metabolic Activation: RAT, LIVER, S-9, PCB, Method: PREINCUBATION): inactive; negative; mutagenic call (Test System: AMES SALMONELLA TYPHIMURIUM, Strain/Indicator: YG1026, Metabolic Activation: NONE, Method: PREINCUBATION): inactive; negative; mutagenic call (Test System: AMES SALMONELLA TYPHIMURIUM, Strain/Indicator: YG1026, Metabolic Activation: RAT, LIVER, S-9, PCB, Method: PREINCUBATION): active; positive
CC(=O)OCc1cocc2c(C=O)ccc1-2 | – | active; positive | active; positive | active; positive | active; positive | inactive; negative | inactive; negative | inactive; negative | inactive; negative | –
